The values below are quoted from earlier work in patent US20240207206A1, “Improved Topical Composition of Colchicine” (Zenvision Pharma LLP, priority 2019, published 2024).

For this data set the following is noted: in water.

For `COc1cc2c(c(OC)c1OC)-c1ccc(OC)c(=O)cc1[C@@H](NC(C)=O)CC2` [Colchicine, (S)N-(5,6,7,9-tetrahydro-1,2,3, 10-tetramethoxy-9-oxobenzo[alpha]heptalen-7-yl) acetamide], the Solubility result is reported as “soluble in water”.
